Data as given in patent US20210369853A1, “TARGETED PROTEASE DEGRADATION PLATFORM” (EUBULUS BIOTHERAPEUTICS INC., priority 2018, published 2021).
Where two headings read alike, the source gives them in different places.

Assays:
Format in all cases: cell-based
[1] = test system: Human Monocytic Leukemia MV4-11; test: Cell proliferation experiment (Alarm blue, 72 h, EC50)
Method in brief: (§1)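 Alarm blue fluorescence after 72 h compound exposure gave the read-out. Duplicate wells per concentration across a 5-fold gradient, with cells at logarithmic growth plated beforehand. EC50 derived by curve fitting with minimum, maximum and slope.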

[2] = test system: Human cervical adenocarcinoma cells Hela; test: as above
Method in brief: as §1

BRD4 = biological target: T1, BRD4 (Homo sapiens, UniProt O60885); test: Western blot, protein degradation (DC50)
T1 construct: endogenous in cells
Procedure: (§2) Cells were treated with the compound for a period of time, after that the cells were collected by centrifugation. After washing with PBS, the cells were lysed by adding RIPA buffer; the cell lysate were added to the loading buffer and then appropriate volume were taken and slowly added to the corresponding wells of the gel plate, and run the SDS-PAGE gel (4%-12%). After running the gel, transferred to the PVDF membrane and sealed with 5% skimmed milk powder at room temperature for 1 hour. The membrane was placed in the primary antibody diluted with 5% skimmed milk powder and shaked slowly overnight at 4° C. After incubation with primary antibody, the membrane was washed 3 times using a TBST shaker; added secondary antibody diluted with 5% skimmed milk powder corresponding to the primary antibody, and shaked slowly at room temperature for 1 hour. After incubation with secondary antibody, the membrane was washed 3 times using the TBST shaker again. The PVDF membrane was flatted in the cassette, the strip was evenly infiltrated with ECL developer solution, and placed in ChemDoc XRS+ gel imager for taking pictures. The intensity of protein bands was analyzed quantitatively using ImageJ software.

PLK1 = biological target: T2, PLK1 (Homo sapiens, UniProt P53350); test: Western blot, protein degradation (DC50)
T2 construct: endogenous in cells
Procedure: as §2

[3] = test system: Human Colon Cancer HCT-116; test: Cell proliferation experiment (Alarm blue, 72 h, EC50); conditions: HCT116 cells
Method in brief: as §1

[4] = test system: Human Small Cell Lung Cancer NCI-H82; test: as above; conditions: NCIH82 cells
Method in brief: as §1

Human Colon Cancer HT-29 = test: as above; conditions: Homo sapiens; HT-29 cells
Method in brief: as §1

[5] = test system: Human Acute Myelomonocytic Leukemia HL-60; test: as above; conditions: HL-60 cells
Method in brief: as §1

[6] = Homo sapiens, MV4-11, MV4;11 cells
[7] = 6 h, western blot, read-out: BRD4 DC50 (6 h)
[8] = 6 h, western blot, read-out: PLK1 DC50 (6 h)
[9] = 24 h, read-out: BRD4 DC50 (24 h)
[10] = 24 h, read-out: PLK1 DC50 (24 h)

T2 sequence (P53350 whole entry): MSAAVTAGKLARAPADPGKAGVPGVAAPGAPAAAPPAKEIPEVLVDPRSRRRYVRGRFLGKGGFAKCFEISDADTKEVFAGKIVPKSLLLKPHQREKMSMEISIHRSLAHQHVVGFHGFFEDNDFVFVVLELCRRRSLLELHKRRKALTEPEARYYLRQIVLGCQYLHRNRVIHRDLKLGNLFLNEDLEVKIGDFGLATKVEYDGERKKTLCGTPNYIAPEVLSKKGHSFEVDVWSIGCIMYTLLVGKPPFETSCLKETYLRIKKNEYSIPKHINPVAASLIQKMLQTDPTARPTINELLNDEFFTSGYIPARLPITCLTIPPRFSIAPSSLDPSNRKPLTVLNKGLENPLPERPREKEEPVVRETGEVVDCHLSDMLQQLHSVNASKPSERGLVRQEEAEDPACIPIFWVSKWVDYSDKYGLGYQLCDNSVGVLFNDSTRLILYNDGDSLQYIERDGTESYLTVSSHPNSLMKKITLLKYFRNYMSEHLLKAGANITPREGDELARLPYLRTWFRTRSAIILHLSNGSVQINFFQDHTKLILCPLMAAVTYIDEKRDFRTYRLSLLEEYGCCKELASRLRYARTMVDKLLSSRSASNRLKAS

| Compound | EC50 [1, 6] | EC50 ([2]; Homo sapiens) | EC50 ([3]; Homo sapiens, HCT-116) | EC50 ([4]; Homo sapiens, NCI-H82) | other results |
| --- | --- | --- | --- | --- | --- |
| CC[C@@H]1c2nncn2-c2cnc(Nc3ccc(C(=O)NCCOCCOCCOCCOCC(=O)N[C@H](C(=O)N4C[C@H](O)C[C@H]4C(=O)NCc4ccc(-c5scnc5C)cc4)C(C)(C)C)cc3OC)nc2N1C1CCCC1 [UB-180523] | 10 to 100 nM | > 1000 nM | – | – | DC50 (BRD4; [7]): > 1000 nM; DC50 (PLK1; [8]): > 1000 nM |
| CC[C@@H]1c2c(C#N)ncn2-c2cnc(Nc3ccc(C(=O)NCCOCCOCCOCCOCC(=O)N[C@H](C(=O)N4C[C@H](O)C[C@H]4C(=O)NCc4ccc(-c5scnc5C)cc4)C(C)(C)C)cc3OC)nc2N1C1CCCC1 [UB-180525] | 10 to 100 nM | > 1000 nM | – | – | DC50 (BRD4; [7]): > 1000 nM; DC50 (PLK1; [8]): > 1000 nM |
| CC[C@@H]1c2c(C#N)ncn2-c2cnc(Nc3ccc(C(=O)NCCOCCOCCOCCC(=O)N[C@H](C(=O)N4C[C@H](O)C[C@H]4C(=O)NCc4ccc(-c5scnc5C)cc4)C(C)(C)C)cc3OC)nc2N1C1CCCC1 [UB-180529] | 10 to 100 nM | > 1000 nM | – | – | DC50 (BRD4; [7]): > 1000 nM; DC50 (PLK1; [8]): > 1000 nM |
| CC[C@@H]1c2nncn2-c2cnc(Nc3ccc(C(=O)NCCOCCOCCOCCOCCC(=O)N[C@H](C(=O)N4C[C@H](O)C[C@H]4C(=O)NCc4ccc(-c5scnc5C)cc4)C(C)(C)C)cc3OC)nc2N1C1CCCC1 [UB-180553] | 100 to 1000 nM | > 1000 nM | – | – | – |
| CC[C@@H]1c2nncn2-c2cnc(Nc3ccc(C(=O)NCCCCOCC(=O)N[C@H](C(=O)N4C[C@H](O)C[C@H]4C(=O)NCc4ccc(-c5scnc5C)cc4)C(C)(C)C)cc3OC)nc2N1C1CCCC1 [UB-180555] | 10 to 100 nM | > 1000 nM | – | – | – |
| CC[C@@H]1c2nncn2-c2cnc(Nc3ccc(C(=O)NCCOCCOCC(=O)Nc4cccc5c4CN(C4CCC(=O)NC4=O)C5=O)cc3OC)nc2N1C1CCCC1 (stereo partly drawn) [UB-180556] | > 1000 nM | > 1000 nM | – | – | – |
| CC[C@@H]1c2c(C#N)ncn2-c2cnc(Nc3ccc(C(=O)NCCOCCOCC(=O)Nc4cccc5c4CN(C4CCC(=O)NC4=O)C5=O)cc3OC)nc2N1C1CCCC1 (stereo partly drawn) [UB-180557] | 100 to 1000 nM | > 1000 nM | – | – | – |
| CC[C@@H]1c2c(C#N)ncn2-c2cnc(Nc3ccc(C(=O)NCCOCCOCCOCCOCC(=O)Nc4cccc5c4CN(C4CCC(=O)NC4=O)C5=O)cc3OC)nc2N1C1CCCC1 (stereo partly drawn) [UB-180560] | 100 to 1000 nM | > 1000 nM | – | – | – |
| CC[C@@H]1c2nncn2-c2cnc(Nc3ccc(C(=O)NCCOCCOCCOCCOCC(=O)Nc4cccc5c4CN(C4CCC(=O)NC4=O)C5=O)cc3OC)nc2N1C1CCCC1 (stereo partly drawn) [UB-180561] | – | – | – | – | EC50 ([1]; MV4;11 cells): > 1000 nM; EC50 [2]: > 1000 nM |
| CC[C@@H]1c2nncn2-c2cnc(Nc3ccc(C(=O)NCCOCCOCCOCCOCCC(=O)Nc4cccc5c4CN(C4CCC(=O)NC4=O)C5=O)cc3OC)nc2N1C1CCCC1 (stereo partly drawn) [UB-180562] | > 1000 nM | > 1000 nM | – | – | – |
| CC[C@@H]1c2c(C#N)ncn2-c2cnc(Nc3ccc(C(=O)NCCOCCOCC(=O)N[C@H](C(=O)N4C[C@H](O)C[C@H]4C(=O)NCc4ccc(-c5scnc5C)cc4)C(C)(C)C)cc3OC)nc2N1C1CCCC1 [UB-180563] | 100 to 1000 nM | > 1000 nM | – | – | – |
| CC[C@@H]1c2nncn2-c2cnc(Nc3ccc(C(=O)NCCOCCOCC(=O)N[C@H](C(=O)N4C[C@H](O)C[C@H]4C(=O)NCc4ccc(-c5scnc5C)cc4)C(C)(C)C)cc3OC)nc2N1C1CCCC1 [UB-180564] | 100 to 1000 nM | > 1000 nM | – | – | – |
| CC[C@@H]1C(=O)N(C)c2cnc(Nc3ccc(C(=O)NCCOCCOCCOCC(=O)Nc4cccc5c4CN(C4CCC(=O)NC4=O)C5=O)cc3OC)nc2N1Cc1ccc(Br)cc1 (stereo partly drawn) [UB-180566] | < 10 nM | – | 100 to 1000 nM | > 1000 nM | DC50 (BRD4; [7]): < 10 nM; DC50 (PLK1; [8]): < 10 nM |
| CC[C@@H]1C(=O)N(C)c2cnc(Nc3ccc(C(=O)NCCOCCNCCCC(=O)Nc4cccc5c4CN(C4CCC(=O)NC4=O)C5=O)cc3OC)nc2N1Cc1ccc(Br)cc1 (stereo partly drawn) [UB-180625] | 10 to 100 nM | – | > 1000 nM | > 1000 nM | DC50 (BRD4; [9]): < 10 nM; DC50 (PLK1; [10]): < 10 nM |
| CC[C@@H]1C(=O)N(C)c2cnc(Nc3ccc(C(=O)NCCOCCNCCCC(=O)Nc4cccc5c4CN(C4CCC(=O)NC4=O)C5=O)cc3OC)nc2N1Cc1ccc(Br)cc1 (stereo partly drawn) [UB-180626] | – | – | – | – | EC50 [3]: > 1000 nM; EC50 ([1]; MV4;11 cells): 10 to 100 nM; EC50 [4]: > 1000 nM |
| CC[C@@H]1C(=O)N(C)c2cnc(Nc3ccc(C(=O)NCCCNCCCCCCC(=O)Nc4cccc5c4CN(C4CCC(=O)NC4=O)C5=O)cc3OC)nc2N1Cc1ccc(Br)cc1 (stereo partly drawn) [UB-180627] | 10 to 100 nM | – | > 1000 nM | > 1000 nM | DC50 (BRD4; [9]): < 10 nM; DC50 (PLK1; [10]): 100 to 1000 nM |
| CC[C@@H]1C(=O)N(C)c2cnc(Nc3ccc(C(=O)NCCCNCCCCCCCC(=O)Nc4cccc5c4CN(C4CCC(=O)NC4=O)C5=O)cc3OC)nc2N1Cc1ccc(Br)cc1 (stereo partly drawn) [UB-180628] | 10 to 100 nM | – | > 1000 nM | > 1000 nM | – |
| CC[C@@H]1C(=O)N(C)c2cnc(Nc3ccc(C(=O)NCCCNCCCC(=O)Nc4cccc5c4CN(C4CCC(=O)NC4=O)C5=O)cc3OC)nc2N1Cc1ccc(Br)cc1 (stereo partly drawn) [UB-180637] | 10 to 100 nM | – | > 1000 nM | > 1000 nM | – |
| CC[C@@H]1C(=O)N(C)c2cnc(Nc3ccc(C(=O)NCCCNCCCCC(=O)Nc4cccc5c4CN(C4CCC(=O)NC4=O)C5=O)cc3OC)nc2N1Cc1ccc(Br)cc1 (stereo partly drawn) [UB-180638] | 10 to 100 nM | – | > 1000 nM | > 1000 nM | – |
| CC[C@@H]1C(=O)N(C)c2cnc(Nc3ccc(C(=O)NCCCNCCCCCC(=O)Nc4cccc5c4CN(C4CCC(=O)NC4=O)C5=O)cc3OC)nc2N1Cc1ccc(Br)cc1 (stereo partly drawn) [UB-180639] | 10 to 100 nM | – | > 1000 nM | > 1000 nM | – |
| CC[C@@H]1C(=O)N(C)c2cnc(Nc3ccc(C(=O)NCCOCCNCCCCCC(=O)Nc4cccc5c4CN(C4CCC(=O)NC4=O)C5=O)cc3OC)nc2N1Cc1ccc(Br)cc1 (stereo partly drawn) [UB-180643] | 10 to 100 nM | – | 100 to 1000 nM | > 1000 nM | – |
| CC[C@@H]1C(=O)N(C)c2cnc(Nc3ccc(C(=O)NCCOCCOCCOCCNCCCCCC(=O)Nc4cccc5c4CN(C4CCC(=O)NC4=O)C5=O)cc3OC)nc2N1Cc1ccc(Br)cc1 (stereo partly drawn) [UB-180644] | 10 to 100 nM | – | > 1000 nM | > 1000 nM | – |
| CC[C@@H]1C(=O)N(C)c2cnc(Nc3ccc(C(=O)NCCOCCNCCCCC(=O)Nc4cccc5c4CN(C4CCC(=O)NC4=O)C5=O)cc3OC)nc2N1Cc1ccc(Br)cc1 (stereo partly drawn) [UB-180645] | 10 to 100 nM | – | 100 to 1000 nM | > 1000 nM | – |
| CC[C@@H]1C(=O)N(C)c2cnc(Nc3ccc(C(=O)NCc4cn(CCNCC(=O)Nc5cccc6c5CN(C5CCC(=O)NC5=O)C6=O)nn4)cc3OC)nc2N1C1CCCC1 (stereo partly drawn) [UB-180691] | 10 to 100 nM | – | – | – | EC50 (Human Colon Cancer HT-29): 100 to 1000 nM |
| CC[C@@H]1C(=O)N(C)c2cnc(Nc3ccc(C(=O)NCc4cn(CCOCCNCCC(=O)Nc5cccc6c5CN(C5CCC(=O)NC5=O)C6=O)nn4)cc3OC)nc2N1C1CCCC1 (stereo partly drawn) [UB-180707] | 10 to 100 nM | – | – | – | EC50 (Human Colon Cancer HT-29): 100 to 1000 nM |
| CC[C@@H]1C(=O)N(C)c2cnc(Nc3ccc(C(=O)NCc4cn(CCNCCOCC(=O)Nc5cccc6c5CN(C5CCC(=O)NC5=O)C6=O)nn4)cc3OC)nc2N1C1CCCC1 (stereo partly drawn) [UB-180719] | 10 to 100 nM | – | – | – | EC50 (Human Colon Cancer HT-29): 100 to 1000 nM; DC50 (BRD4; 6 h, read-out: BRD4 DC50 (nM) (6 h)): < 10 nM; DC50 (BRD4; 24 h, read-out: BRD4 DC50 (nM) (24 h)): < 10 nM; DC50 (PLK1; 6 h, read-out: PLK1 DC50 (nM) (6 h)): 10 to 100 nM; DC50 (PLK1; 24 h, read-out: PLK1 DC50 (nM) (24 h)): < 10 nM |
| O=C1CCC(N2Cc3c(NC(=O)CNCCOCCOCCOCCNC(=O)c4ccc(Nc5ncc6c(n5)-c5ccc(Cl)cc5C(c5c(F)cccc5F)=NC6)cc4)cccc3C2=O)C(=O)N1 (stereo not drawn) [UB-180727] | 100 to 1000 nM | – | – | – | EC50 [5]: > 1000 nM |
